Measurements published in US9000027B2, “Chk1 suppresses a caspase-2 apoptotic response to DNA damage that bypasses p53, bcl-2 and caspase-3” (Dana-Farber Cancer Institute, Inc., priority 2008, dated 2015).
Entries after “also recorded” stand apart in the source; their conditions may differ.

How the values were obtained:
[1] = tested on: p53^e7/e7;chk1^MO cells grafted into p53^e7/e7 hosts; assay: Blastula-cell transplantation (genetic chimeras), TUNEL after IR; assay type: in vivo, zebrafish; conditions: 12.5 Gy, n=102
Excerpt: To determine whether the Chk1-antagonized pathway functions cell autonomously or non-cell autonomously, we generated genetic chimeras (see cell transplantation procedure in FIG. 3D and assay validation in FIG. 14). While p53^e7/e7;chk1^MO cells grafted into p53^e7/e7 hosts often stained TUNEL-positive after IR (39%, n=102), neighboring host cells were virtually never seen that stained TUNEL-positive (FIG. 3E, upper panels). In the reciprocal experiment, p53^e7/e7 cells transplanted into p53^e7/e7;chk1^MO hosts remained TUNEL-negative within an otherwise TUNEL-positive environment (FIG. 3E, lower panels). Therefore, IR-induced TUNEL reactivity of transplanted cells strictly depends on Chk1 dosage, occurs irrespective of the cellular environment, and has very little, if any, influence on neighboring cells. The Chk1-suppressed apoptotic pathway thus functions in a cell-autonomous manner.
Zebrafish embryos were fixed in 4% paraformaldehyde (PFA) overnight at 4° C. and subsequently stored in methanol at −20° C. for at least 2 hr. After rehydration at room temperature in PBST (1×PBS, 0.1% Tween-20), embryos were treated with proteinase K (10 μg/mL) in PBS for 15 min, followed by a 20-min postfix in 4% PFA at room temperature. […] Tagged DNA was detected with sheep anti-digoxigenin-fluorescein or sheep anti-digoxigenin-rhodamine conjugated Fab fragments. […]

[2] = tested on: p53 mutant embryos; assay: Live acridine orange (AO) assay of IR-induced cell death in inhibitor-treated p53 mutant embryos; assay type: in vivo, zebrafish
Excerpt: Chk1 inhibitors hold considerable promise in cancer therapy, as they are expected to synergize with genotoxic agents to kill tumor cells lacking functional p53, without affecting normal cells (Kawabe, 2004; Zhou and Bartek, 2004). […] Gö6976 has not been tested in vivo in a vertebrate model system. We therefore evaluated it as well as specific Chk2 and ATM inhibitors in the zebrafish system. Drug toxicity was monitored by scoring the AO reactivity of inhibitor-treated, but non-irradiated, p53^+/+ embryos (left column in FIG. 8A). Unless otherwise indicated, the inhibitors were applied at 18 hpf (that is, immediately before IR) for a total of 6 hours.
Live zebrafish embryos were dechorionated in pronase (2.0 mg/mL in egg water) for 3 to 5 min and rinsed five times in egg water at 18 hpf. Embryos were then γ-irradiated (12.5 Gy) using a ^137Cs-irradiator (Gammacell 1000) at 18 hr post-fertilization (hpf). At 24 hpf, embryos were incubated in […] Acridine Orange (AO; Sigma A-6014) in egg water for 30 min at 28.5° C., followed by 3 quick rinses and three 10-min washes in egg water. 5-10 AO-treated embryos were anesthetized in Tricaine ([…]; 3-amino benzoic acid ethylester from Sigma, A-5040) and mounted laterally on a glass slide in warm 0.5% agarose in egg water by streaking a thin layer of the warm agarose across the surface of the slide, and gently pulling the embryos across the agar with a transfer pipette. Lateral images of each zebrafish were acquired on a Zeiss Axioplan2 fluorescence microscope (5× lens), using OpenLab software and a Hammamatsu C4742-95 digital camera. All images were then converted to 8-bit grayscale in NIH ImageJ using the Image>Type>8-bit command. Next, we cropped the images using the Polyonal Selection tool and the Image>Crop functions to include only the trunk of the animal from the head until the beginning of the yolk tube (MO screen; FIG. 1B) or along the entire spinal cord (epistasis analyses; FIGS. 6A & 6D). The area outside of the selected region of interest was cleared using the Edit>Clear Outside command to create a distinct boundary around the area of interest (this is important as it allows the area of interest to be precisely selected after applying the threshold). Next, we split the acquired images into features of interest and background using the Image>Adjust>Threshold function in NIH ImageJ. We then set the maximum threshold of each image to 255 (the lower slide bar in the Threshold window), and adjusted the minimum threshold to the optimized threshold (see below). The threshold was applied using the Black & White display option, with the following Lut options applied; Thresholded pixels to foreground color; Remaining pixels to background color and Black foreground, white background. […] Next, we re-selected the region of interest on the thresholded image, following the bounded image carefully, and analyzed the pixels of the image using the Analyze>Analyze Particles function. The Minimum Size was set to 1px, the Maximum Size was set to the maximum value of 999999 and the Masks option was selected under the Show pull-down menu. The following extended options were also selected: Display Results; Clear Results; Summarize, Size Distribution and Record Starts. If selected by default, the Exclude on Edges option was deselected. The Area Fraction for each image selection was taken from the Summary window, which is the percentage of pixels in the selection that were black. To ensure valid comparisons of the AO labeling results across all experiments, we quantitatively determined a baseline Area Fraction across a large set of simultaneously irradiated and processed p53^+/+ embryos. […] This analysis yielded a mean value for the total labeled surface area of ˜20% (see FIG. 1B, light gray bar). We included at least 6 p53^+/+ non-injected control embryos in all subsequent AO-labeling experiments. […]

Compound: chk1 MO: morpholino against zebrafish chk1 atg/5'UTR, aggcacagccattatgcaatcttcg (SEQ ID NO: 11) (AGGCACAGCCATTATGCAATCTTCG; all phosphorodiamidate morpholino (PMO))
- grafted cells staining TUNEL-positive after IR [1]: 39%

Compound: Cn1c2ccccc2c2c3c(c4c5ccccc5n(CCC#N)c4c21)CNC3=O [Gö6976]
- Gö6976-treated p53 mutants showing a marked IR-response recovery ([2]; 1 μM, 12.5 Gy IR at 18 hpf, n=210): 95%
- radiosensitization of p53 mutants (IR-induced AO labeling) ([2]; 12.5 Gy at 18 hpf, Gö6976 1 μM, KU55933 10 μM, Chk2 Inhibitor II 10 μM, 6 hr): restored a complete response to IR; also recorded: restored IR-induced cell death with complete penetrance
- exposure immediately after IR sufficient to phenocopy chk1 MO knockdown ([2]; p53 mutant embryos): 1.5 h
- AO staining response versus p53 mutant response ([2]; p53 mutants treated with Gö6976 for 6 hours, IR): ~500 fold
